The assay deals with T1, human GPR39 receptor (Homo sapiens, UniProt O43194).
T1 construct: PC3 Cells, Expressing the Endogenous Human GPR39 Receptor; endogenous in cells; host or cells: PC3 (human prostate adenocarcinoma) cells
T1 sequence (O43194 1-453): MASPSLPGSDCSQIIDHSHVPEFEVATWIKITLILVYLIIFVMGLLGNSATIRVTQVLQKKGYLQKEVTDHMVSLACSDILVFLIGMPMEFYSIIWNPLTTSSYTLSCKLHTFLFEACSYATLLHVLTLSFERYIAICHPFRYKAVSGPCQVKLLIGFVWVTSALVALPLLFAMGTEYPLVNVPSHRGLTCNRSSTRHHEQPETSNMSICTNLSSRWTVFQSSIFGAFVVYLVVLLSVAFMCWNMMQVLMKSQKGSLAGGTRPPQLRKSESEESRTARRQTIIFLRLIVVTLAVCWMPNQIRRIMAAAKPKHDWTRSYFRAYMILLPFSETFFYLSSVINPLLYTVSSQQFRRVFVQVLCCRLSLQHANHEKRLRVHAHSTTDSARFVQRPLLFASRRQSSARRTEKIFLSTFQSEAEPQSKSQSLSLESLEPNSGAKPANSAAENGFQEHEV
Briefly: Intracellular calcium response (FLIPR, Calcium-6) in PC3 cells, antagonism of agonist C3 (TC-G 1008) at EC90. The note with it: functional pKi (-Log10Ki) by modified Cheng-Prusoff from IC50; PC3 cells endogenously expressing human GPR39; 30 μM ZnCl2; agonist C3 (TC-G 1008) at EC90 1.5 μM; read-out: fpKi activity. The format is cell-based. The method, then: Measurement of Intracellular Calcium Response in PC3 Cells, Expressing the Endogenous Human GPR39 Receptor
Human prostate adenocarcinoma (PC3) cells endogenously expressing human GPR39 receptor were seeded into black walls clear-base 384-well plates at a density of 7,500 cells per well in DMEM (Low Glucose) supplemented with 10% heat-inactivated foetal bovine serum and 1% of Pen/Strep and grown overnight at 37° C., 5% CO2. After washing with assay buffer (20 mM HEPES, 137 mM NaCl, 5.4 mM KCl, 10 mM glucose, 0.8 mM MgSO4, 1.3 mM CaCl2), 0.3 mM Na2HPO4, 0.4 mM KH2PO4 4.2 mM NaHCO3, pH 7.4), cells were incubated with Calcium-6 probe (Molecular Devices) at 37° C. for 2 h and then equilibrated at RT for 30 minutes on metal block. The fluorescence was measured in real time by Fluorometric Imaging Plate Reader (FLIPR TETRA, Molecular Devices) (excitation wavelength at 470-495 nm, emission wavelength at 515-575 nm). Compounds of invention were serially diluted in neat DMSO at 1000 fold concentrations and plated into 384-well plates and then 200-fold diluted in assay buffer containing 150 μM ZnCl2 (30 μM final concentration) and 1.1% DMSO (0.32% final concentration). A dual addition FLIPR protocol was used which included a first addition of compounds 200-fold diluted in Assay Buffer containing 150 μM ZnCl2 and 1.1% DMSO and then after 10 minutes a second addition of a submaximal concentration of the hGPR39 receptor agonist, C3 (Tocris, TC-G 1008) at EC90 (concentration producing 90% of the maximal response) value of 1.5 μM. Fluorescence was monitored throughout the run assay. The peak of Ca2+ stimulation (baseline subtracted) was expressed as percentage of the maximal inhibition of the EC90 C3 response and was plotted versus the concentration of test compound. Curve fitting and IC50 estimations are carried out using a four-parameter logistic model using XLfit Software. […] An fpKi less than 5.2 is reported as “+/−”. An fpKi ranging from 5.2 to 5.9 is reported as “+”. An fpKi from 6.0 to 6.5 is reported as “++”. An fpKi from 6.6 to 7.2 is reported as “+++”. An fpKi equal to or greater than 7.3 is reported as “++++”.

The structures appear in SMILES notation. Structures can show the parent of a compound that is named as a salt.

Take `C[C@@H]1CN(C(=O)c2ccc(NC(=O)C3CC3)cc2N2CCCC2)C[C@@H](C)O1` (racemic) [Example 4, N-[4-[(trans)-2,6-dimethylmorpholine-4-carbonyl]-3-pyrrolidin-1-ylphenyl]cyclopropanecarboxamide]: the Ki fell in the range of 1260 to 6310 nM.
The value for `Cc1cc(Nc2ccc(C(=O)N3CCN(C)CC3c3ccccc3)c(N3CCCC3)c2)on1` (racemic) [Example 18, [4-[(3-methyl-1,2-oxazol-5-yl)amino]-2-pyrrolidin-1-ylphenyl]-(4-methyl-2-phenylpiperazin-1-yl)methanone] was 1260 to 6310 nM.
The value for `CC(C)n1ccc(-c2cc(NC(=O)C3CC3)ccc2C(=O)N2CCN(C)CC2c2ccccc2)n1` (racemic) [Example 30, N-[4-(4-methyl-2-phenylpiperazine-1-carbonyl)-3-(1-propan-2-ylpyrazol-3-yl)phenyl]cyclopropanecarboxamide] was 316 to 1000 nM; that for `CN1CCN(C(=O)c2ccc(NC(=O)C3CC3)cc2-c2cnc(C(F)(F)F)s2)C(c2ccccc2)C1` (racemic) [Example 31, N-[4-(4-methyl-2-phenylpiperazine-1-carbonyl)-3-[2-(trifluoromethyl)-1,3-thiazol-5-yl]phenyl]cyclopropanecarboxamide] was over 6310 nM.
The value for `Cc1ncc(-c2cc(NC(=O)C3CC3)ccc2C(=O)N2CCN(C)CC2c2ccccc2)s1` (racemic) [Example 32, N-[4-(4-methyl-2-phenylpiperazine-1-carbonyl)-3-(2-methyl-1,3-thiazol-5-yl)phenyl]cyclopropanecarboxamide] was 1260 to 6310 nM; that for `CN1CCN(C(=O)c2ccc(NC(=O)C3CC3)cc2-c2ccc(C(F)(F)F)s2)C(c2ccccc2)C1` (racemic) [Example 33, N-[4-(4-methyl-2-phenylpiperazine-1-carbonyl)-3-[5-(trifluoromethyl)thiophen-2-yl]phenyl]cyclopropanecarboxamide] was over 6310 nM; that for `Cc1ccc(-c2cc(NC(=O)C3CC3)ccc2C(=O)N2CCN(C)CC2c2ccccc2)s1` (racemic) [Example 34, N-[4-(4-methyl-2-phenylpiperazine-1-carbonyl)-3-(5-methylthiophen-2-yl)phenyl]cyclopropanecarboxamide] was 63.1 to 251 nM.
As to `CN1CCN(C(=O)c2ccc(NC(=O)C3CC3)cc2N2CCCC2)C(c2ccccc2C(F)(F)F)C1` (racemic) [Example 106, N-[4-[4-methyl-2-[2-(trifluoromethyl)phenyl]piperazine-1-carbonyl]-3-pyrrolidin-1-ylphenyl]cyclopropanecarboxamide], the Ki fell in the range of 316 to 1000 nM.
As for `CN1CCN(C(=O)c2ccc(NC(=O)C3CC3)cc2N2CCCC2)C(c2cccc(C#N)c2)C1` (racemic) [Example 107, N-[4-[2-(3-cyanophenyl)-4-methylpiperazine-1-carbonyl]-3-pyrrolidin-1-ylphenyl]cyclopropanecarboxamide], the Ki is 63.1 to 251 nM.
Consider `Cc1ccc(C2CN(C)CCN2C(=O)c2ccc(NC(=O)C3CC3)cc2N2CCCC2)cc1` (racemic) [Example 109, N-[4-[4-methyl-2-(4-methylphenyl)piperazine-1-carbonyl]-3-pyrrolidin-1-ylphenyl]cyclopropanecarboxamide], for which the Ki was 63.1 to 251 nM.
With `Cc1cc(Cl)cc(C2CN(C)CCN2C(=O)c2ccc(NC(=O)C3CC3)cc2N2CCCC2)c1` (racemic) [Example 110, N-[4-[2-(3-chloro-5-methylphenyl)-4-methylpiperazine-1-carbonyl]-3-pyrrolidin-1-ylphenyl]cyclopropanecarboxamide] the figure was at most 50.1 nM; with `Cc1cccc(C2CN(C)CCN2C(=O)c2ccc(NC(=O)C3CC3)cc2N2CCCC2)c1` (racemic) [Example 111, N-[4-[4-methyl-2-(3-methylphenyl)piperazine-1-carbonyl]-3-pyrrolidin-1-ylphenyl]cyclopropanecarboxamide], 63.1 to 251 nM; with `Cc1nnc(-c2ccc(C(=O)N3CCC(F)(F)CC3)c(-c3ccn(C(C)C4CC4)n3)c2)[nH]1` (single isomer, unassigned) [Example 57a, [2-[1-(1R or 1S-cyclopropylethyl)pyrazol-3-yl]-4-(5-methyl-4H-1,2,4-triazol-3-yl)phenyl]-(4,4-difluoro-1-piperidyl)methanone], at most 50.1 nM.
The value for `Cc1cc(Cl)cc(C2CN(C)CCN2C(=O)c2ccc(NC(=O)C3CC3)cc2N2CCCC2)c1` (single isomer, unassigned) [Example 110a, N-[4-[2S or 2R-(3-chloro-5-methylphenyl)-4-methylpiperazine-1-carbonyl]-3-pyrrolidin-1-ylphenyl]cyclopropanecarboxamide hydrochloride] was at most 50.1 nM; that for `Cc1cc(Cl)cc(C2CN(C)CCN2C(=O)c2ccc(NC(=O)C3CC3)cc2N2CCCC2)c1` (single isomer, unassigned) [Example 110b, N-[4-[2S or 2R-(3-chloro-5-methylphenyl)-4-methylpiperazine-1-carbonyl]-3-pyrrolidin-1-ylphenyl]cyclopropanecarboxamide hydrochloride] was 1260 to 6310 nM; that for `Cc1nnc(-c2ccc(C(=O)N3CCN(C)CC3c3ccccc3)c(N3CCC(C(C)C)C3)c2)[nH]1` (single isomer, unassigned) [Example 125a, (4-methyl-2-phenylpiperazin-1-yl)-[4-(5-methyl-4H-1,2,4-triazol-3-yl)-2-(3-propan-2-ylpyrrolidin-1-yl)phenyl]methanone] was 316 to 1000 nM.
With `Cc1nnc(-c2ccc(C(=O)N3CCN(C)CC3c3ccccc3)c(N3CCC(C(C)C)C3)c2)[nH]1` (single isomer, unassigned) [Example 125b, (4-methyl-2-phenylpiperazin-1-yl)-[4-(5-methyl-4H-1,2,4-triazol-3-yl)-2-(3-propan-2-ylpyrrolidin-1-yl)phenyl]methanone] the figure was at most 50.1 nM.
With `Cc1nnc(-c2ccc(C(=O)N3CCN(C)CC3c3ccccc3)c(N3CCC(C(C)C)C3)c2)[nH]1` (single isomer, unassigned) [Example 125c, (4-methyl-2-phenylpiperazin-1-yl)-[4-(5-methyl-4H-1,2,4-triazol-3-yl)-2-(3-propan-2-ylpyrrolidin-1-yl)phenyl]methanone], the Ki was 63.1 to 251 nM.
`Cc1nnc(-c2ccc(C(=O)N3CCN(C)CC3c3ccccc3)c(N3CCC(C(C)C)C3)c2)[nH]1` (single isomer, unassigned) [Example 125d, (4-methyl-2-phenylpiperazin-1-yl)-[4-(5-methyl-4H-1,2,4-triazol-3-yl)-2-(3-propan-2-ylpyrrolidin-1-yl)phenyl]methanone]: the Ki was at most 50.1 nM.
With `O=C(Nc1ccc(C(=O)N2CCCC2c2ccccc2)c(N2CCCC2)c1)C1CC1` (stereo not shown) [Example 1, N-[4-(2-phenylpyrrolidine-1-carbonyl)-3-pyrrolidin-1-ylphenyl]cyclopropanecarboxamide] the figure was 1260 to 6310 nM; with `O=C(Nc1ccc(C(=O)N2CCC(c3ccccc3)C2)c(N2CCCC2)c1)C1CC1` (stereo not shown) [Example 2, N-[4-(3-phenylpyrrolidine-1-carbonyl)-3-pyrrolidin-1-ylphenyl]cyclopropanecarboxamide], 1260 to 6310 nM.
`O=C(Nc1ccc(C(=O)N2CCC3(COC3)C2)c(N2CCCC2)c1)C1CC1` [Example 3, N-[4-(2-oxa-7-azaspiro[3.4]octane-7-carbonyl)-3-pyrrolidin-1-ylphenyl]cyclopropanecarboxamide]: the Ki lay in the range of 1260 to 6310 nM.

Source of the values: patent publication US20250333405A1, “ANTAGONISTS OF GPR39 PROTEIN” (VASOCARDEA, INC., priority 2024, published 2025).
